Results: patent US20160046618A1, “Cyclopropyl Fused Thiazin-2-Amine Compounds as Beta-Secretase Inhibitors and Methods of Use” (AMGEN INC., priority 2014, published 2016)
Read-outs that look alike come from different tables or passages of the source.

Columns and labels:
human recombinant BACE1 = human recombinant BACE1 (Homo sapiens (Human), UniProt P56817); assay: In vitro enzymatic BACE1 FRET assay; type: biochemical; conditions: BACE1 FRET enzyme assay; read-out: IC50 IP (μM) BACE1 enzyme
Protocol: These recombinant proteins were further purified using Ni-NTA affinity chromatography (Qiagen). […] This assay is effectively started by the addition of FRET substrate (50 nM) and the combination is incubated for one hour. The FRET assay is terminated by addition of Tris buffer, which raises the pH to neutrality, and the fluorescence is determined. The FRET substrate is a peptide with commercially available fluorophore and quencher, on opposite sides of the BACE cleavage site. Proteolytic cleavage of the FRET substrate releases quenching of fluorescence (excitation 488 nm and emission 590 nm).

Recombinant Cat D = Recombinant Cat D (Homo sapiens (Human), UniProt P07339); assay: In vitro enzymatic Cathepsin D (Cat D) FRET assay; type: biochemical; conditions: read-out: IC50 IP (μM) CatD
Protocol: In Vitro Enzymatic Cathepsin D (Cat D) FRET (Fluorescence Resonance Energy Transfer) Assay
Recombinant Cat D was expressed in CHO cells. The assay buffer for CathepsinD is 0.05 M citrate pH 3.5, 10% DMSO final, 5 mM CHAPS. […] The assays are effectively started by the addition of different FRET substrates (20 nM for Cat D) and the combination is incubated for one hour. The FRET assay is terminated with by addition of Tris buffer, which raises the pH to neutrality, and the fluorescence is determined. The FRET substrate is a peptide with commercially available fluorophore and quencher, on opposite sides of the BACE cleavage site. The Cat D substrate peptide sequence is based on sequence #1 of Table 1 from Gulnik et al. FEBS Letters v413 p 379-384 1997. Proteolytic cleavage of the FRET substrate releases quenching of fluorescence (Cat D excitation 500 nm and emission 580 nm).

[1] = system: Aβ40 in conditioned medium of cells stably expressing Amyloid Precursor Protein (APP); assay: In vitro BACE-1 cell-based assay (Aβ40 sandwich ELISA); conditions: read-out: IC50 IP (μM) BACE1 cell
Protocol: In Vitro BACE-1 Cell-Based Assay
The cell-based assay measures inhibition or reduction of Aβ40 in conditioned medium of test compound treated cells expressing amyloid precursor protein. Cells stably expressing Amyloid Precursor Protein (APP) were plated at a density of 40K cells/well in 96 well plates (Costar). The cells were cultivated for 24 hours at 37° C. and 5% CO2 in DMEM supplemented with 10% FBS. The test compounds were then added to cells in 10-point dose response concentrations with the starting concentration being either 100 μM or 10 μM. The compounds were diluted from stock solutions in DMSO and the final DMSO concentration of the test compounds on cells was 0.1%. After 24 h of incubation with the test compounds the supernatant conditioned media was collected and the Aβ40 levels were determined using a sandwich ELISA. The IC50 of the compound was calculated from the percent of control or percent inhibition of Aβ40 as a function of the concentration of the test compound.
The sandwich ELISA to detect Aβ40 was performed in 96 well microtiter plates, which were pre-treated with goat anti-rabbit IgG (Pierce). The capture and detecting antibody pair that were used to detect Aβ40 from cell supernatants were affinity purified pAb40 (Biosource) and biotinylated 6E10 (Signet Labs Inc.), respectively. The optimal concentration for the pAb40 antibody was 3 μg/ml in Superblock/TBS (Pierce) that was supplemented with 0.05% Tween 20 (Sigma). […] Cellular supernatants were incubated with the capture antibody for 3 h at 4° C., followed by 3 wash steps in TBS-tween (0.05%). The detecting antibody incubation was for 2 h at 4° C., again followed by the wash steps as described previously. The final readout of the ELISA is Time-Resolved Fluorescence (counts per minute) using Delfia reagents Streptavidin-Europium and Enhancement solutions (Perkin Elmer) and the Victor 2 multilabel counter (Perkin Elmer).

Sequence of human recombinant BACE1 (P56817 46-501): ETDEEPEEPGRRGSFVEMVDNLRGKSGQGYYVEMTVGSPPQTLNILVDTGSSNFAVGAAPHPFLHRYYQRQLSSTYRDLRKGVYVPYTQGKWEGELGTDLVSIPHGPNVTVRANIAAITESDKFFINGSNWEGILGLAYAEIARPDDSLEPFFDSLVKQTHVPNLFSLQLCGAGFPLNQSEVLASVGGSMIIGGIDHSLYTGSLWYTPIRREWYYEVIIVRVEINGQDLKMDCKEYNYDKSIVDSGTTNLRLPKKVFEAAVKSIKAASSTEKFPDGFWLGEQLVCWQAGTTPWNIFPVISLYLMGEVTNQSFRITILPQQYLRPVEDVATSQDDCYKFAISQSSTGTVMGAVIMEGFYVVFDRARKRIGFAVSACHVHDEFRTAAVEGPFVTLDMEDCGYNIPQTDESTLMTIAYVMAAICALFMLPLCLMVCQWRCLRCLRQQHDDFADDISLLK
Sequence of Recombinant Cat D (P07339 65-412): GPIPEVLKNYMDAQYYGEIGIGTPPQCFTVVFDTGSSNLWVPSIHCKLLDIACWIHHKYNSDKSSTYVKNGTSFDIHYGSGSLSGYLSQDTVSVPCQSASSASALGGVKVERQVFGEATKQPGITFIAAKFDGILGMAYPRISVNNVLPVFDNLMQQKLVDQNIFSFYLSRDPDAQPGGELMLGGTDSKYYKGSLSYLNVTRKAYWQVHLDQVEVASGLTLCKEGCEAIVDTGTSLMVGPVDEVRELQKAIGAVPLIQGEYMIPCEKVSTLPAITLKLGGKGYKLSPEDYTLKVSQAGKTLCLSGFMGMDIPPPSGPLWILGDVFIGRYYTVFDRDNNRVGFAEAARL

Row | Structure (SMILES) | IC50 (human recombinant BACE1) | IC50 (Recombinant Cat D; Cathepsin D FRET enzyme assay) | IC50 ([1]; BACE1 cell-based assay) | IC50 [1] | IC50 (Recombinant Cat D)
1 | COc1cnc(C(=O)Nc2cc(F)c(F)c([C@@]3(C)N=C(N)S[C@H]4C[C@H]43)c2)cn1 [Example 7, N-(3-((1S,5S,6S)-3-amino-5-methyl-2-thia-4-azabicyclo[4.1.0]hept-3-en-5-yl)-4,5-difluorophenyl)-5-methoxy-2-pyrazinecarboxamide] | 0.0141 µM | 719 µM | 0.00636 µM |  | 
2 | Cc1cc(Cl)cnc1C(=O)Nc1cc(F)c(F)c([C@@]2(C)N=C(N)S[C@H]3C[C@H]32)c1 [Example 8, N-(3-((1S,5S,6S)-3-amino-5-methyl-2-thia-4-azabicyclo[4.1.0]hept-3-en-5-yl)-4,5-difluorophenyl)-5-chloro-3-methyl-2-pyridinecarboxamide] | 0.00528 µM | 418 µM | 0.0563 µM |  | 
3 | CCOC(=O)[C@]12C[C@H]1[C@@](C)(c1cc(NC(=O)c3ccc(Cl)cn3)cc(F)c1F)N=C(N)S2 [Example 9, (1S,5S,6S)-ethyl 3-amino-5-(5-(5-chloropicolinamido)-2,3-difluorophenyl)-5-methyl-2-thia-4-azabicyclo[4.1.0]hept-3-ene-1-carboxylate] | 0.00679 µM | 366 µM | 0.0232 µM |  | 
4 | C[C@]1(c2cc(NC(=O)c3ccc(C#N)cn3)cc(F)c2F)N=C(N)S[C@H]2C[C@H]21 [Example 14, N-(3-((1S,5S,6S)-3-amino-5-methyl-2-thia-4-azabicyclo[4.1.0]hept-3-en-5-yl)-4,5-difluorophenyl)-5-cyano-2-pyridinecarboxamide] | 0.0109 µM | 797 µM | 0.00569 µM |  | 
5 | Cc1cc(OC(F)F)cnc1C(=O)Nc1cc(F)c(F)c([C@@]2(C)N=C(N)S[C@H]3C[C@H]32)c1 [Example 15, N-(3-((1S,5S,6S)-3-amino-5-methyl-2-thia-4-azabicyclo[4.1.0]hept-3-en-5-yl)-4,5-difluorophenyl)-5-(difluoromethoxy)-3-methyl-2-pyridinecarboxamide] | 0.0124 µM | 506 µM | 0.00994 µM |  | 
6 | COc1cnc(C(=O)Nc2cc(F)c(F)c([C@@]3(CF)N=C(N)S[C@H]4C[C@H]43)c2)cn1 [Example 16, N-(3-((1S,5S,6S)-3-amino-5-(fluoromethyl)-2-thia-4-azabicyclo[4.1.0]hept-3-en-5-yl)-4,5-difluorophenyl)-5-methoxy-2-pyrazinecarboxamide] | 0.0145 µM | 875 µM | 0.00908 µM |  | 
7 | COc1cnc(C(=O)Nc2cc(F)c(F)c([C@@]3(CF)N=C(N)S[C@H]4C[C@H]43)c2)c(C)n1 [Example 17, N-(3-((1S,5S,6S)-3-amino-5-(fluoromethyl)-2-thia-4-azabicyclo[4.1.0]hept-3-en-5-yl)-4,5-difluorophenyl)-5-methoxy-3-methyl-2-pyrazinecarboxamide] | 0.026 µM | 863 µM | 0.0548 µM |  | 
8 | NC1=N[C@](CF)(c2cc(NC(=O)c3ccc(Cl)cn3)cc(F)c2F)[C@@H]2C[C@@H]2S1 [Example 18, N-(3-((1S,5S,6S)-3-amino-5-(fluoromethyl)-2-thia-4-azabicyclo[4.1.0]hept-3-en-5-yl)-4,5-difluorophenyl)-5-chloropicolinamide] | 0.0172 µM | 34.3 µM | 0.0169 µM |  | 
9 | Cc1cc(C#N)cnc1C(=O)Nc1cc(F)c(F)c([C@@]2(C)N=C(N)S[C@H]3C[C@H]32)c1 [Example 19, N-(3-((1S,5S,6S)-3-amino-5-methyl-2-thia-4-azabicyclo[4.1.0]hept-3-en-5-yl)-4,5-difluorophenyl)-5-cyano-3-methyl-2-pyridinecarboxamide] | 0.00545 µM | 669 µM | 0.00431 µM |  | 
10 | NC1=N[C@](CF)(c2cc(Nc3ncnc4cc(Cl)cnc34)cc(F)c2F)[C@@H]2C[C@@H]2S1 [Example 22, (1S,5S,6S)-5-(5-((7-Chloropyrido[3,2-d]pyrimidin-4-yl)amino)-2,3-difluorophenyl)-5-(fluoromethyl)-2-thia-4-azabicyclo[4.1.0]hept-3-en-3-amine] | 0.0149 µM | 331 µM | 0.0533 µM |  | 
11 | C#C[C@H](C)Oc1cnc(C(=O)Nc2cc(F)c(F)c([C@@]3(C)N=C(N)S[C@@]4(CF)C[C@H]43)c2)c(C)n1 [Example 616, N-(3-((1S,5S,6S)-3-amino-1-(fluoromethyl)-5-methyl-2-thia-4-azabicyclo[4.1.0]hept-3-en-5-yl)-4,5-difluorophenyl)-3-methyl-5-(((1S)-1-methyl-2-propyn-1-yl)oxy)-2-pyrazinecarboxamide] |  |  |  | 0.0329 µM | 
12 | C#C[C@H](C)Oc1cnc(C(=O)Nc2cc(F)c(F)c([C@@]3(C)N=C(N)S[C@@]4(COC)C[C@H]43)c2)c(C)n1 [Example 622, N-(3-((1S,5S,6S)-3-amino-1-(methoxymethyl)-5-methyl-2-thia-4-azabicyclo[4.1.0]hept-3-en-5-yl)-4,5-difluorophenyl)-3-methyl-5-(((1S)-1-methyl-2-propyn-1-yl)oxy)-2-pyrazinecarboxamide] |  |  |  | 0.0438 µM | 
13 | C#C[C@H](C)Oc1cnc(C(=O)Nc2ccc(F)c([C@@]3(C)N=C(N)S[C@@]4(C(F)F)C[C@@H]34)c2)c(C)c1 [Example 648, N-(3-((1S,5S,6S)-3-amino-1-(difluoromethyl)-5-methyl-2-thia-4-azabicyclo[4.1.0]hept-3-en-5-yl)-4-fluorophenyl)-3-methyl-5-(((1S)-1-methyl-2-propyn-1-yl)oxy)-2-pyridinecarboxamide] |  |  |  | 0.222 µM | 
14 | C#CCOc1cnc(C(=O)Nc2ccc(F)c([C@@]3(C)N=C(N)S[C@@]4(CF)C[C@H]43)c2)cn1 [Example 822, N-(3-((1S,5S,6S)-3-amino-1-(fluoromethyl)-5-methyl-2-thia-4-azabicyclo[4.1.0]hept-3-en-5-yl)-4-fluorophenyl)-5-(2-propyn-1-yloxy)-2-pyrazinecarboxamide] |  |  |  | 0.000378 µM | 
15 | [2H]C([2H])(C#C)Oc1cnc(C(=O)Nc2cc(F)c(F)c([C@@]3(C)N=C(N)S[C@@]4(COC)C[C@H]43)c2)cn1 [Example 840] |  |  |  | 0.0006 µM | 
16 | C[C@]1(c2cc(NC(=O)c3ccc(Cl)cn3)cc(F)c2F)N=C(N)S[C@@]2(C(=O)O)C[C@H]21 [Example 899, Lithium (1S,5S,6S)-3-amino-5-(5-(5-chloropicolinamido)-2,3-difluorophenyl)-5-methyl-2-thia-4-azabicyclo[4.1.0]hept-3-ene-1-carboxylate] |  |  |  | 2.45 µM | 
17 | NC1=N[C@](CF)(c2cc(Nc3nccc4nc(OCc5ncco5)cnc34)ccc2F)[C@@H]2C[C@]2(c2c[nH]nn2)S1 [Example 957, N-(3-((1S,5S,6S)-3-amino-5-(fluoromethyl)-1-(1H-1,2,3-triazol-4-yl)-2-thia-4-azabicyclo[4.1.0]hept-3-en-5-yl)-4-fluorophenyl)-2-(1,3-oxazol-2-ylmethoxy)pyrido[3,4-b]pyrazin-5-amine] |  |  |  | 0.00616 µM | 
18 | CCOc1cnc(C(=O)Nc2cc(F)c(F)c([C@@]3(C)N=C(N)S[C@@]4(COC)C[C@H]43)c2)cn1 [Example 1038, N-(3-((1S,5S,6S)-3-amino-1-(methoxymethyl)-5-methyl-2-thia-4-azabicyclo[4.1.0]hept-3-en-5-yl)-4,5-difluorophenyl)-5-ethoxy-2-pyrazinecarboxamide] |  |  |  |  | 1300 µM
19 | C=CC(C)Oc1cnc(C(=O)Nc2ccc(F)c([C@@]3(C)N=C(N)S[C@@]4(COC)C[C@H]43)c2)cn1 (stereo partly drawn) [Example 1063, N-(3-((1S,5S,6S)-3-amino-1-(methoxymethyl)-5-methyl-2-thia-4-azabicyclo[4.1.0]hept-3-en-5-yl)-4-fluorophenyl)-5-(but-3-en-2-yloxy)pyrazine-2-carboxamide] |  |  |  | 0.1 µM | 
